Read-outs that look alike come from different tables or passages of the source. *1 amine or outer side, *2 acyl side, *3 side chain or, on linkers, in order; H or OH if unused. Where a SMILES comes first, the peptide text is derived from it. Side-chain parts run from the residue outwards. [ ]: non-standard residue; d: D form. The star is where a group is joined. αMePhe(2-F) = C[C@](N)(Cc1ccccc1F)C(=O)O; γGlu = O=C(O)[C@H](CCC(=O)[*:2])N[*:1]; C14 diacid = O=C(O)CCCCCCCCCCCCC(=O)*; αMeY = C[C@](N)(Cc1ccc(O)cc1)C(=O)O; 4Pal = N[C@@H](Cc1ccncc1)C(=O)O; αMeL = CC(C)C[C@](C)(N)C(=O)O; αMeS = C[C@](N)(CO)C(=O)O; Orn = NCCC[C@H](N)C(=O)O; AEEA = NCCOCCOCC(=O)O; Aib = CC(C)(N)C(=O)O
Legend:
Type in all cases: cell-based
[1] = molecular target: hGLP-1R (Homo sapiens, UniProt P43220); test: Functional cAMP formation (HTRF) in HEK-293 clonal cells expressing hGLP-1R, 0.1% bovine casein, without or with 1.0% human serum albumin; set-up: expressed in transfected cells; conditions: for EC50: geometric mean
Chain of hGLP-1R (P43220 24-463): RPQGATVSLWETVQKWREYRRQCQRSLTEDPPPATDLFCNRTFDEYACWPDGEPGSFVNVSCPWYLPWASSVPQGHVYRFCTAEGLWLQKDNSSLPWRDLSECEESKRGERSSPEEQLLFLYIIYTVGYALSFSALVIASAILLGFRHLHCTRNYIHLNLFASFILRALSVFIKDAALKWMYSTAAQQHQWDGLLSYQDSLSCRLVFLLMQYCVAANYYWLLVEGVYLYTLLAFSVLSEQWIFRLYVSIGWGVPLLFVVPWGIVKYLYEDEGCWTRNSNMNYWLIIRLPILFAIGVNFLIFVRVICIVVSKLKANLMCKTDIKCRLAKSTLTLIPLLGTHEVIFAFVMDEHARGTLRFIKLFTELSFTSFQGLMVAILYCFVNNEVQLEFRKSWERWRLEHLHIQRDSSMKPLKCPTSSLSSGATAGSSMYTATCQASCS
How it was run: (§1)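 Cells were stimulated with peptide for 30 min at 37° C, then intracellular cAMP was measured by competitive HTRF (665/620 nm ratio) and converted to nM using a cAMP standard curve. Relative EC50 and Emax came from four-parameter logistic fits of percent maximal response against peptide concentration.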

[2] = molecular target: T1, hGIPR (Homo sapiens, UniProt P48546); test: Functional cAMP formation (HTRF) in HEK-293 clonal cells expressing hGIPR, 0.1% bovine casein, without or with 1.0% human serum albumin; conditions: for EC50: cAMP, 0.1% bovine casein (no human serum albumin), geometric mean
T1 construct: expressed in transfected cells
T1 sequence (P48546 22-466): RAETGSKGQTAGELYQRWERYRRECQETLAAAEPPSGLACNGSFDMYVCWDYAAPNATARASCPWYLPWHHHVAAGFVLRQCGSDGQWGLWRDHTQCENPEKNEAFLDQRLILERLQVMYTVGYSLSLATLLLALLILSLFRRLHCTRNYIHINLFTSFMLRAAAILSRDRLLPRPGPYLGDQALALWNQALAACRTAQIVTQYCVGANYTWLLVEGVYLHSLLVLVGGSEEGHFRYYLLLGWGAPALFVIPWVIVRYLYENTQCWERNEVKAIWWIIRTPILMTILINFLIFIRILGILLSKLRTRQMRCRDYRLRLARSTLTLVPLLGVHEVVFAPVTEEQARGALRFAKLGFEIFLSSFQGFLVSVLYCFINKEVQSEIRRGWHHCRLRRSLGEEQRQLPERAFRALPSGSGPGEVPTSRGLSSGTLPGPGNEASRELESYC
How it was run: as §1

[3] = molecular target: T2, hGCGR (Homo sapiens, UniProt P47871); test: Functional cAMP formation (HTRF) in HEK-293 clonal cells expressing hGCGR, 0.1% bovine casein, without or with 1.0% human serum albumin; conditions: geometric mean
T2 construct: expressed in transfected cells
T2 sequence (P47871 26-477): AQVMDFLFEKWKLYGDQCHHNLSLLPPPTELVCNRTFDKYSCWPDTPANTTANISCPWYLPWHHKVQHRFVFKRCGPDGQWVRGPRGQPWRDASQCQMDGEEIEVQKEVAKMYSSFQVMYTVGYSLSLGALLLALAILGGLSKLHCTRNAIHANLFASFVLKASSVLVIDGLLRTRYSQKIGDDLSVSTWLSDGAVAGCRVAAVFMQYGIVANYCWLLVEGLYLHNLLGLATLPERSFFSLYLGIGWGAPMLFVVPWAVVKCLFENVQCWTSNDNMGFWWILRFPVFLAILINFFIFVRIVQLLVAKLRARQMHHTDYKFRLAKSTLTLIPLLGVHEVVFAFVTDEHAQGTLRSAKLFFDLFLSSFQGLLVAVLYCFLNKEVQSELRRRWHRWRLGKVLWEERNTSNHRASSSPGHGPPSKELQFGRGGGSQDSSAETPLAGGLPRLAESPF
How it was run: as §1

[4] = HEK293, 0.1% bovine casein and 1.0% human serum albumin, 37° C., percent of maximal response to GIP(1-42)NH2, read-out: hGIPR Emax, % ± SEM
[5] = HEK293, percent of maximal response to GIP(1-42)NH2, 37° C., 0.1% bovine casein, arithmetic mean, read-out: hGIPR Emax, % ± SEM
[6] = 0.1% bovine casein and 1.0% human serum albumin, 37° C., read-out: hGCGR EC50, nM (SEM, n)
[7] = cAMP, incubated at 37° C., 0.1% bovine casein (no human serum albumin), read-out: hGCGR EC50, nM (SEM, n)
[8] = hGCGR EC50, nM (SEM, n), 0.1% bovine casein and 1.0% human serum albumin, 37° C.

CC[C@H](C)[C@H](NC(=O)[C@H](CC(C)C)NC(=O)[C@](C)(Cc1ccc(O)cc1)NC(=O)[C@@H](CCC(=O)O)NC(=O)[C@@H](NC(=O)[C@H](Cc1ccccc1)NC(=O)[C@H](CCC(=O)O)NC(=O)C(C)(C)NC(=O)[C@H](CCC(N)=O)NC(=O)[C@H](C)NC(=O)[C@H](CCCCNC(=O)COCCOCCNC(=O)COCCOCCNC(=O)CC[C@H](NC(=O)CCCCCCCCCCCCC(=O)O)C(=O)O)NC(=O)[C@H](CCCN)NC(=O)[C@H](CC(=O)O)NC(=O)[C@H](CC(C)C)NC(=O)[C@](C)(CC(C)C)NC(=O)[C@@H](NC(=O)[C@H](CO)NC(=O)C1(NC(=O)[C@H](CC(=O)O)NC(=O)[C@H](CO)NC(=O)[C@@H](NC(=O)[C@](C)(Cc2ccccc2F)NC(=O)[C@@H](NC(=O)CNC(=O)[C@H](CCC(=O)O)NC(=O)C(C)(C)NC(=O)[C@@H](N)Cc2ccc(O)cc2)[C@@H](C)O)[C@@H](C)O)CCCCC1)[C@@H](C)CC)[C@@H](C)CC)C(=O)N[C@@H](CCC(=O)O)C(=O)NCC(=O)NCC(=O)N[C@@H](CCCCNC(=O)COCCOCCNC(=O)COCCOCCNC(=O)CC[C@H](NC(=O)CCCCCCCCCCCCC(=O)O)C(=O)O)C(=O)N[C@@H](CO)C(=O)N[C@@H](CO)C(=O)NCC(=O)N[C@@H](C)C(=O)N1CCC[C@H]1C(=O)N1CCC[C@H]1C(=O)N1CCC[C@H]1C(=O)N[C@@H](CO)C(N)=O [Example 54]
EC50 ([1]; 0.1% bovine casein and 1.0% human serum albumin, 37° C., read-out: hGLP-1R EC50, nM (SEM, n)): 20.3 nM
Emax [2, 4]: 85.6%
Emax [2, 5]: 113%
EC50 [3, 6]: > 9950 nM
EC50 [3, 7]: > 9950 nM

CC[C@H](C)[C@H](NC(=O)[C@H](CCCN)NC(=O)[C@H](CC(=O)O)NC(=O)[C@H](CC(C)C)NC(=O)[C@](C)(CC(C)C)NC(=O)[C@@H](NC(=O)[C@](C)(CO)NC(=O)[C@H](Cc1ccncc1)NC(=O)[C@H](CC(=O)O)NC(=O)[C@H](CO)NC(=O)[C@@H](NC(=O)[C@](C)(Cc1ccccc1F)NC(=O)[C@@H](NC(=O)CNC(=O)[C@H](CCC(=O)O)NC(=O)C(C)(C)NC(=O)[C@@H](N)Cc1ccc(O)cc1)[C@@H](C)O)[C@@H](C)O)[C@@H](C)CC)C(=O)N[C@@H](C)C(=O)N[C@@H](CCC(N)=O)C(=O)NC(C)(C)C(=O)N[C@@H](CCCCNC(=O)COCCOCCNC(=O)COCCOCCNC(=O)CC[C@H](NC(=O)CCCCCCCCCCCCC(=O)O)C(=O)O)C(=O)N[C@@H](Cc1ccccc1)C(=O)N[C@H](C(=O)N[C@@H](CCCCNC(=O)COCCOCCNC(=O)COCCOCCNC(=O)CC[C@H](NC(=O)CCCCCCCCCCCCC(=O)O)C(=O)O)C(=O)N[C@@](C)(Cc1ccc(O)cc1)C(=O)N[C@@H](CC(C)C)C(=O)N[C@H](C(=O)N[C@@H](CCC(=O)O)C(=O)NCC(=O)NCC(=O)N1CCC[C@H]1C(=O)N[C@@H](CO)C(=O)N[C@@H](CO)C(=O)NCC(=O)N[C@@H](C)C(=O)N1CCC[C@H]1C(=O)N1CCC[C@H]1C(=O)N1CCC[C@H]1C(=O)N[C@@H](CO)C(N)=O)[C@@H](C)CC)[C@@H](C)CC [Example 215] (H-Y[Aib]EGT[αMePhe(2-F)]TSD[4Pal][αMeS]I[αMeL]LD[Orn]IAQ[Aib]K([AEEA-AEEA-γGlu-C14 diacid])FIK([AEEA-AEEA-γGlu-C14 diacid])[αMeY]LIEGGPSSGAPPPS-NH2)
Emax ([1]; HEK293, read-out: hGLP-1R Emax, % ± SEM, percent of maximal response to GLP-1(7-36)NH2, 37° C., 0.1% bovine casein, arithmetic mean): 89.8%
EC50 ([1]; hGLP-1R EC50, nM (SEM, n), cAMP, incubated at 37° C., 0.1% bovine casein (no human serum albumin)): 0.44 nM
Emax ([2]; HEK293, read-out: hGIPR Emax, % ± SEM, 0.1% bovine casein and 1.0% human serum albumin, 37° C., percent of maximal response to GIP(1-42)NH2): 91.3%
Emax ([2]; HEK293, read-out: hGIPR Emax, % ± SEM, percent of maximal response to GIP(1-42)NH2, 37° C., 0.1% bovine casein, arithmetic mean): 85%
EC50 ([2]; hGIPR EC50, nM (SEM, n), incubated at 37° C.): 0.0437 nM
EC50 [3, 8]: > 9950 nM
EC50 ([3]; hGCGR EC50, nM (SEM, n), cAMP, incubated at 37° C., 0.1% bovine casein (no human serum albumin)): > 9950 nM

CC[C@H](C)[C@H](NC(=O)[C@H](CCCN)NC(=O)[C@H](CC(=O)O)NC(=O)[C@H](CC(C)C)NC(=O)[C@](C)(CC(C)C)NC(=O)[C@@H](NC(=O)[C@H](CO)NC(=O)[C@H](Cc1ccncc1)NC(=O)[C@H](CC(=O)O)NC(=O)[C@H](CO)NC(=O)[C@@H](NC(=O)[C@](C)(Cc1ccccc1F)NC(=O)[C@@H](NC(=O)CNC(=O)[C@H](CCC(=O)O)NC(=O)C(C)(C)NC(=O)[C@@H](N)Cc1ccc(O)cc1)[C@@H](C)O)[C@@H](C)O)[C@@H](C)CC)C(=O)N[C@@H](C)C(=O)N[C@@H](CCC(N)=O)C(=O)NC(C)(C)C(=O)N[C@@H](CCCCNC(=O)COCCOCCNC(=O)COCCOCCNC(=O)CC[C@H](NC(=O)CCCCCCCCCOc1ccc(C(=O)O)cc1)C(=O)O)C(=O)N[C@@H](Cc1ccccc1)C(=O)N[C@H](C(=O)N[C@H](CCC(=O)O)C(=O)N[C@@](C)(Cc1ccc(O)cc1)C(=O)N[C@@H](CC(C)C)C(=O)N[C@H](C(=O)N[C@@H](CCCCNC(=O)COCCOCCNC(=O)COCCOCCNC(=O)CC[C@H](NC(=O)CCCCCCCCCOc1ccc(C(=O)O)cc1)C(=O)O)C(=O)NCC(=O)NCC(=O)N1CCC[C@H]1C(=O)N[C@@H](CO)C(=O)N[C@@H](CO)C(=O)NCC(=O)N[C@@H](C)C(=O)N1CCC[C@H]1C(=O)N1CCC[C@H]1C(=O)N1CCC[C@H]1C(=O)N[C@@H](CO)C(N)=O)[C@@H](C)CC)[C@@H](C)CC [Example 275]
Emax ([1]; HEK293, read-out: hGLP-1R Emax, % ± SEM, cAMP, 37° C., 0.1% bovine casein, percent of maximal response to GLP-1(7-36)NH2, arithmetic mean): 110%
EC50 ([1]; hGLP-1R EC50, nM (SEM, n), 0.1% bovine casein and 1.0% human serum albumin, 37° C.): 33.5 nM
EC50 ([2]; hGIPR EC50, nM (SEM, n), 37° C.): 0.0152 nM
EC50 [3, 8]: > 9950 nM
EC50 ([3]; hGCGR EC50, nM (SEM, n), cAMP, 37° C., 0.1% bovine casein (no human serum albumin)): > 9950 nM

CC[C@H](C)[C@H](NC(=O)[C@H](CC(C)C)NC(=O)[C@](C)(Cc1ccc(O)cc1)NC(=O)[C@@H](CCC(=O)O)NC(=O)[C@@H](NC(=O)[C@H](Cc1ccccc1)NC(=O)[C@H](CCC(=O)O)NC(=O)C(C)(C)NC(=O)[C@H](CCC(N)=O)NC(=O)[C@H](C)NC(=O)[C@H](CCCCNC(=O)COCCOCCNC(=O)COCCOCCNC(=O)CC[C@H](NC(=O)CCCCCCCCCCCCC(=O)O)C(=O)O)NC(=O)[C@H](CCCN)NC(=O)[C@H](CC(=O)O)NC(=O)[C@H](CC(C)C)NC(=O)[C@](C)(CC(C)C)NC(=O)[C@@H](NC(=O)[C@H](CO)NC(=O)[C@H](CC1CCCCC1)NC(=O)[C@H](CC(=O)O)NC(=O)[C@H](CO)NC(=O)[C@@H](NC(=O)[C@](C)(Cc1ccccc1F)NC(=O)[C@@H](NC(=O)CNC(=O)[C@H](CCC(=O)O)NC(=O)C(C)(C)NC(=O)[C@@H](N)Cc1ccc(O)cc1)[C@@H](C)O)[C@@H](C)O)[C@@H](C)CC)[C@@H](C)CC)C(=O)N[C@@H](CCC(=O)O)C(=O)NCC(=O)NCC(=O)N[C@@H](CCCCNC(=O)COCCOCCNC(=O)COCCOCCNC(=O)CC[C@H](NC(=O)CCCCCCCCCCCCC(=O)O)C(=O)O)C(=O)N[C@@H](CO)C(=O)N[C@@H](CO)C(=O)NCC(=O)N[C@@H](C)C(=O)N1CCC[C@H]1C(=O)N1CCC[C@H]1C(=O)N1CCC[C@H]1C(=O)N[C@@H](CO)C(N)=O [Example 98]
Emax ([1]; HEK293, 0.1% bovine casein and 1.0% human serum albumin, 37° C., percent of maximal response to GLP-1(7-36)NH2, read-out: hGLP-1R Emax, % ± SEM): 97.5%
EC50 ([1]; cAMP, incubated at 37° C., 0.1% bovine casein (no human serum albumin), read-out: hGLP-1R EC50, nM (SEM, n)): 0.227 nM
Emax [2, 4]: 95%
Emax [2, 5]: 97.7 ± 2.54%
EC50 ([2]; incubated at 37° C., read-out: hGIPR EC50, nM (SEM, n)): 0.0148 nM
EC50 [3, 6]: > 9950 nM
EC50 [3, 7]: > 9950 nM
